Biological target: KRAS (aa 1-169) G12C, C51S, C80L, C118S (Homo sapiens (Human), UniProt P01116, C118S/C51S/C80L/G12C)
Experiment: Biochemical functional assay: SOS1-mediated nucleotide exchange of GDP-loaded KRAS G12C, binding to GST-cRaf RBD, FRET readout
Settings: 3 hrs pre-incubation with compound at 24° C., SOS1, GTPyS, inhibition of nucleotide exchange
Method: Biochemical Functional Assay
The KRAS (aa 1-169) G12C, C51S, C80L, C118S with a His-tag was expressed, purified and loaded with GDP in house. All protein and substrate solutions were prepared in assay buffer containing 25 mM HEPES pH7.5, 10 mM MgCl2, and 0.01% Triton X-100. Purified GDP-loaded KRAS (aa 1-169) G12C, C51S, C80L, C118S protein was pre-incubated with a serially diluted compound at 24° C. for 3 hrs. Purified SOS1 (aa 564-1049) protein, GTPyS (Sigma) and GST-cRaf RBD (aa 1-149) were then added to each well and incubated at 24° C. for additional 3 hrs. […] Following the incubation, Mab Anti-6HIS-T cryptate (Cisbio) and Mab Anti GST-XL665 (Cisbio) were added and further incubated at 24° C. for 3 hrs. The binding interaction between active GTPyS KRAS G12C and GST-cRaf RBD brings the Tb and XL665 into close proximity enabling an increased FRET signal (Ex337 nm, Em665 nm/620 nm). The inhibition percentage of nucleotide exchange reaction in presence of increasing concentrations of compounds was calculated based on the ratio of fluorescence at 665 nm to that at 620 nm detected on a BMG PHERAstar FSX instrument. The IC50 value of each compound was calculated from fitting the data to the four-parameter logistic model by Dotmatics.

KRAS (aa 1-169) G12C, C51S, C80L, C118S, sequence (P01116 other isoform, or with tags, fused parts or gaps G12C/C51S/C80L/C118S): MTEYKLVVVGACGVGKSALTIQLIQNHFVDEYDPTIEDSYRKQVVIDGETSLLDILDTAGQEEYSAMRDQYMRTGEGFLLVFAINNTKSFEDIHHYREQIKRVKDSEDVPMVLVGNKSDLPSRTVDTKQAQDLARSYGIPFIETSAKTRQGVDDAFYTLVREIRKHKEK

| SMILES | IC50 |
| --- | --- |
| C=C(F)C(=O)N1CCN(c2nc(OCC3C[C@@H](OC)CN3C)nc3cc(-c4cccc5cccc(Cl)c45)c4c(c23)OCCC4)C[C@@H]1CC#N (mixture of isomers) [Compound B93, 2-((2S)-4-(5-(8-chloronaphthalen-1-yl)-8-(((4R)-4-methoxy-1-methylpyrrolidin-2-yl)methoxy)-3,4-dihydro-2H-pyrano[2,3-f]quinazolin-10-yl)-1-(2-fluoroacryloyl)piperazin-2-yl)acetonitrile] | 11 nM |
| C=CC(=O)N1CCN(c2ncnc3cc(-c4c(Cl)ccc5[nH]ncc45)c4c(c23)OCCC4)C[C@@H]1CC#N (single isomer, unassigned) [Compound A14] | 79.4 nM |
| C=CC(=O)N1CCN(c2ncnc3cc(-c4c(Cl)ccc5[nH]ncc45)c4c(c23)OCCC4)C[C@@H]1CC#N (single isomer, unassigned) [Compound A15] | 92.6 nM |
| C=C(F)C(=O)N1CCN(c2nc(OC[C@@H]3CCCN3C)nc3cc(-c4cccc5cccc(Cl)c45)c4c(c23)OCCC4)C[C@@H]1CC#N (single isomer, unassigned) [Compound B67] | 4.6 nM |
| C=C(F)C(=O)N1CCN(c2nc(OC[C@@H]3CCCN3C)nc3cc(-c4cccc5cccc(Cl)c45)c4c(c23)OCCC4)C[C@@H]1CC#N (single isomer, unassigned) [Compound B68] | 177 nM |
| C=C(F)C(=O)N1CCN(c2nc(N3CC(CC#N)(N(C)C)C3)nc3cc(-c4cccc5cccc(Cl)c45)c4c(c23)OCCC4)C[C@@H]1CC#N (single isomer, unassigned) [Compound B91] | 15 nM |
| C=C(F)C(=O)N1CCN(c2nc(N3CC(CC#N)(N(C)C)C3)nc3cc(-c4cccc5cccc(Cl)c45)c4c(c23)OCCC4)C[C@@H]1CC#N (single isomer, unassigned) [Compound B92] | 381 nM |
| C=C(F)C(=O)N1CCN(c2nc(OCC3C[C@@H](OC)CN3C)nc3cc(-c4cccc5cccc(Cl)c45)c4c(c23)OCCC4)C[C@@H]1CC#N (single isomer, unassigned) [Compound B94] | 4.63 nM |
| C=C(F)C(=O)N1CCN(c2nc(OCC3C[C@@H](OC)CN3C)nc3cc(-c4cccc5cccc(Cl)c45)c4c(c23)OCCC4)C[C@@H]1CC#N (single isomer, unassigned) [Compound B95] | 11.5 nM |
| C=C(F)C(=O)N1CCN(c2nc(OCC3C[C@@H](OC)CN3C)nc3cc(-c4cccc5cccc(Cl)c45)c4c(c23)OCCC4)C[C@@H]1CC#N (single isomer, unassigned) [Compound B96] | 140 nM |
| C=C(F)C(=O)N1CCN(c2nc(OCC3C[C@@H](OC)CN3C)nc3cc(-c4cccc5cccc(Cl)c45)c4c(c23)OCCC4)C[C@@H]1CC#N (single isomer, unassigned) [Compound B97] | 508 nM |
| C=C(F)C(=O)N1CCN(c2nc(N3CC(N(C)C)C3)nc3cc(-c4cccc5cccc(Cl)c45)c4c(c23)OCCC4)C[C@@H]1CC#N (single isomer, unassigned) [Compound B101] | 6.53 nM |
| C=C(F)C(=O)N1CCN(c2nc(N3CC(N(C)C)C3)nc3cc(-c4cccc5cccc(Cl)c45)c4c(c23)OCCC4)C[C@@H]1CC#N (single isomer, unassigned) [Compound B102] | 354 nM |
| C=C(F)C(=O)N1CCN(c2nc(OC[C@H]3CCCN3C)nc3cc(-c4cccc5cccc(Cl)c45)c4c(c23)OCCC4)C[C@@H]1CC#N (single isomer, unassigned) [Compound B104] | 8.16 nM |
| C=C(F)C(=O)N1CCN(c2nc(OC[C@H]3CCCN3C)nc3cc(-c4cccc5cccc(Cl)c45)c4c(c23)OCCC4)C[C@@H]1CC#N (single isomer, unassigned) [Compound B105] | 290 nM |
| C=C(F)C(=O)N1CCN(c2nc(OC[C@H]3C[C@@H](OC)CN3C)nc3cc(-c4cccc5cccc(Cl)c45)c4c(c23)OCCC4)C[C@@H]1CC#N (single isomer, unassigned) [Compound B106] | 9.54 nM |

| SMILES | IC50 |
| --- | --- |
| C=C(F)C(=O)N1CCN(c2nc(OC[C@H]3C[C@@H](OC)CN3C)nc3cc(-c4cccc5cccc(Cl)c45)c4c(c23)OCCC4)C[C@@H]1CC#N (single isomer, unassigned) [Compound B107] | 3.26 nM |
| C=C(F)C(=O)N1CCN(c2nc(OC[C@@H]3CCCN3C)nc3cc(-c4c(Cl)c(C)cc5[nH]ncc45)c4c(c23)OCCC4)C[C@@H]1CC#N (single isomer, unassigned; atropisomer1) [Compound B12] | 4.6 nM |
| C=C(F)C(=O)N1CCN(c2nc(OC[C@@H]3CCCN3C)nc3cc(-c4c(Cl)c(C)cc5[nH]ncc45)c4c(c23)OCCC4)C[C@@H]1CC#N (single isomer, unassigned; atropisomer 2) [Compound B13] | 325 nM |
| C=CC(=O)N1CCN(c2ncnc3cc(-c4cccc5ccccc45)c4c(c23)OC(C)(C)CC4)CC1 [Compound A1, 1-(4-(2,2-dimethyl-5-(naphthalen-1-yl)-3,4-dihydro-2H-pyrano[2,3-f]quinazolin-10-yl)piperazin-1-yl)prop-2-en-1-one] | 5500 nM |
| C=CC(=O)N1CCN(c2ncnc3cc(-c4c(O)cccc4F)c4c(c23)OC(C)(C)CC4)CC1 [Compound A2, 1-(4-(5-(2-fluoro-6-hydroxyphenyl)-2,2-dimethyl-3,4-dihydro-2H-pyrano[2,3-f]quinazolin-10-yl)piperazin-1-yl)prop-2-en-1-one] | 2120 nM |
| C=CC(=O)N1CCN(c2ncnc3cc(-c4c(O)cccc4F)c4c(c23)OC(C)(C)CC4)C[C@@H]1CC#N [Compound A3, 2-((2S)-1-acryloyl-4-(5-(2-fluoro-6-hydroxyphenyl)-2,2-dimethyl-3,4-dihydro-2H-pyrano[2,3-f]quinazolin-10-yl)piperazin-2-yl)acetonitrile] | 559 nM |
| C=CC(=O)N1CCN(c2ncnc3cc(-c4c(O)cccc4F)c4c(c23)OCCC4)C[C@@H]1CC#N [Compound A4, 2-((2S)-1-acryloyl-4-(5-(2-fluoro-6-hydroxyphenyl)-3,4-dihydro-2H-pyrano[2,3-f]quinazolin-10-yl)piperazin-2-yl)acetonitrile] | 89.6 nM |
| C=CC(=O)N1CC2(CCN(c3ncnc4cc(-c5c(O)cccc5F)c5c(c34)OCCC5)CC2)C1 [Compound A5, 1-(7-(5-(2-fluoro-6-hydroxyphenyl)-3,4-dihydro-2H-pyrano[2,3-f]quinazolin-10-yl)-2,7-diazaspiro[3.5]nonan-2-yl)prop-2-en-1-one] | 1690 nM |
| C=CC(=O)N1CC2CN(c3ncnc4cc(-c5c(O)cccc5F)c5c(c34)OC(C)(C)CC5)CC2C1 (centres unmarked) [Compound A6, 1-(5-(5-(2-fluoro-6-hydroxyphenyl)-2,2-dimethyl-3,4-dihydro-2H-pyrano[2,3-f]quinazolin-10-yl)hexahydropyrrolo[3,4-c]pyrrol-2(1H)-yl)prop-2-en-1-one] | 3540 nM |
| C=CC(=O)N1CCN(c2ncnc3cc(-c4cccc5ccccc45)c4c(c23)OCCC4)C[C@@H]1CC#N [Compound A7, (S)-2-(1-acryloyl-4-(5-(naphthalen-1-yl)-3,4-dihydro-2H-pyrano[2,3-f]quinazolin-10-yl)piperazin-2-yl)acetonitrile] | 43.1 nM |
| C=CC(=O)N1CCN(c2ncnc3cc(-c4cccc5ccccc45)c4c(c23)OCC=C4)C[C@@H]1CC#N [Compound A8, (S)-2-(1-acryloyl-4-(5-(naphthalen-1-yl)-2H-pyrano[2,3-f]quinazolin-10-yl)piperazin-2-yl)acetonitrile] | 82.1 nM |
| C=CC(=O)N1CCN(c2ncnc3cc(-c4c(C)ccc5[nH]ncc45)c4c(c23)OCC=C4)C[C@@H]1CC#N [Compound A9, 2-((2S)-1-acryloyl-4-(5-(5-methyl-1H-indazol-4-yl)-2H-pyrano[2,3-f]quinazolin-10-yl)piperazin-2-yl)acetonitrile] | 218 nM |
| C=CC(=O)N1CCN(c2ncnc3cc(-c4c(C)ccc5[nH]ncc45)c4c(c23)OCCC4)C[C@@H]1CC#N [Compound A10, 2-((2S)-1-acryloyl-4-(5-(5-methyl-1H-indazol-4-yl)-3,4-dihydro-2H-pyrano[2,3-f]quinazolin-10-yl)piperazin-2-yl)acetonitrile] | 598 nM |
| C=CC(=O)N1CCN(c2ncnc3cc(-c4cc(C)cc5[nH]ncc45)c4c(c23)OCCC4)C[C@@H]1CC#N [Compound A11, (S)-2-(1-acryloyl-4-(5-(6-methyl-1H-indazol-4-yl)-3,4-dihydro-2H-pyrano[2,3-f]quinazolin-10-yl)piperazin-2-yl)acetonitrile] | 799 nM |
| C=CC(=O)N1CCN(c2ncnc3cc(-c4cccc5ccccc45)c4c(c23)OCCC4)CC1 [Compound A12, 1-(4-(5-(naphthalen-1-yl)-3,4-dihydro-2H-pyrano[2,3-f]quinazolin-10-yl)piperazin-1-yl)prop-2-en-1-one] | 1660 nM |
| C=CC(=O)N1CCN(c2ncnc3cc(-c4c(C)ccc5[nH]ncc45)c4c(c23)OCCC4)CC1 [Compound A13, 1-(4-(5-(5-methyl-1H-indazol-4-yl)-3,4-dihydro-2H-pyrano[2,3-f]quinazolin-10-yl)piperazin-1-yl)prop-2-en-1-one] | 3310 nM |

Reference: patent publication US20240166660A1, “KRAS G12C INHIBITORS” (BeiGene Switzerland GmbH, priority 2021, published 2024)
